Reference: US20190308988A1, “OPIOID RECEPTOR ANTAGONIST PRODRUGS” (Nirsum Laboratories, Inc., priority 2017, published 2019)
Converted amounts (≈) assume the structure as drawn.

Legend:
[1] = Solubility determination in oil (Table 10); conditions: thermodynamic from solid; for solubility thermodynamic: water, Equilibrium solubility: Water
Experimental: A known amount of test substance (˜40 mg) was weighed into the vial, 100 μL of oil was added and heated to 60° C. and then system was slurried to reach equilibrium. […] Extra oil was added into the vial once compound precipitated out and then the system was re-equilibrated at 1000 rpm at room temperature (25° C.). Final concentration was determined by HPLC method as described below in Table 6a and 6b.

[2] = molecular target: T1, MOR (Homo sapiens, UniProt P35372); test: Opioid receptor binding assay, MOR ([3H]DAMGO)
T1 construct: expressed in transfected cells
T1 sequence (P35372 whole entry): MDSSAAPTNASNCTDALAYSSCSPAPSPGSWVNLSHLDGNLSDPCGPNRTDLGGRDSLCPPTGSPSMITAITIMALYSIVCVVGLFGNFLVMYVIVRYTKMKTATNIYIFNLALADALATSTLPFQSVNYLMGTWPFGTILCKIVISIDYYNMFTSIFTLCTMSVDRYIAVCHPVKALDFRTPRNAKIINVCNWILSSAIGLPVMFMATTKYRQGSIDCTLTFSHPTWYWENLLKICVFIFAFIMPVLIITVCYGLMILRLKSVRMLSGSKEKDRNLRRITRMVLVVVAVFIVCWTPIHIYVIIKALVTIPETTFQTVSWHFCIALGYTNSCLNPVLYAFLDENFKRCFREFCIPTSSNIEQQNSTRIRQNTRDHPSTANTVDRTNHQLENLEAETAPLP
Experimental: (§1) Receptor binding assays were performed to assess the ability of compounds to inhibit binding to radiolabeled ligand.
(§2) The stable cell lines were established and prepared cell membrane obtained using these cell lines.
(§3) 1) Transfer 1 μl of specified concentration compound to assay plate according to the plate map for nonspecific binding. Transfer 1 μl of DMSO to assay plate according to plate map for total binding. 2) Follow the plate map. Dispense 99 μl of membrane stocks into the plate. 3) Add 100 μl of radio ligand. 4) Seal the plates. Incubate at RT for 1 hour. 5) Soak the Unifilter-96 GF/C filter plates with 50 μl of 0.3% PEI per well for at least 0.5 hour at room temperature. 6) When binding assays are completed, filter the reaction mixture through GF/C plates using Perkin Elmer Filtermate Harvester, and then wash each plate for 4 times with cold wash buffer. 7) Dry the filter plates for 1 hour at 50 degrees. 8) After drying, seal the bottom of the filter plate wells using Perkin Elmer Unifilter-96 backing seal tape. Add 50 μl of Perkin Elmer Microscint 20 cocktail. Seal top of filter plates with Perkin Elmer TopSeal-A sealing film. 9) Count ^3H trapped on filter using Perkin Elmer MicroBeta2 Reader second day. 10) Analyze the data with GraphPad Prism 5. Calculate the “Inhibition [% Control]” using the equation: % Inh=(1−Background subtracted Assay value/Background subtracted HC value)*100.

[3] = molecular target: T2, DOR (Homo sapiens, UniProt P41143); test: Opioid receptor binding assay, DOR ([3H]-DADLE)
T2 construct: expressed in transfected cells
T2 sequence (P41143 whole entry): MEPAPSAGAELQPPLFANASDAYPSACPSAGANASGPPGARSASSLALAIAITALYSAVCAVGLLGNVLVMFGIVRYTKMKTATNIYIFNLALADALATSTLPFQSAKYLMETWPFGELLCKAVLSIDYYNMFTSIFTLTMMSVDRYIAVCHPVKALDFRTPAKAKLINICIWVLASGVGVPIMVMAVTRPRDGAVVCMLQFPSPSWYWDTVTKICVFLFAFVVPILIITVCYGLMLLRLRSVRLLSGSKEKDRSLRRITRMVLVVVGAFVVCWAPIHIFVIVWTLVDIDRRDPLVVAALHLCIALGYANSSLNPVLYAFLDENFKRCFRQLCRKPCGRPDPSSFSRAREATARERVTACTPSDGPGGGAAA
Experimental: as §1, §2, §3

[4] = molecular target: T3, KOR (Homo sapiens, UniProt P41145); test: Opioid receptor binding assay, KOR ([3H]Diprenorphine)
T3 construct: expressed in transfected cells
T3 sequence (P41145 whole entry): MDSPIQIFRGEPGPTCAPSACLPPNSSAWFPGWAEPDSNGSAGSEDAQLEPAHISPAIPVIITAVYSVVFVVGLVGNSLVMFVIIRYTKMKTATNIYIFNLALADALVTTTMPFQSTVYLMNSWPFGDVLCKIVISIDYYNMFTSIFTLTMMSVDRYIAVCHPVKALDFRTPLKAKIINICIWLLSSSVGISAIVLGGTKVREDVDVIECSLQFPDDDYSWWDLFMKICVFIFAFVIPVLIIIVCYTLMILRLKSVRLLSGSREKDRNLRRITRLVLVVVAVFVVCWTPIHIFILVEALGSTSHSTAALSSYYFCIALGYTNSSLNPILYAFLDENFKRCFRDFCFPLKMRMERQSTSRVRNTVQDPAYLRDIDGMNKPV
Experimental: as §1, §2, §3

[5] = Dog pharmacokinetic studies, deep intramuscular administration; format: in vivo, Beagle dogs; conditions: for AUC(0-inf) / half-life: Beagle, dog, plasma, im; for AUC(0-inf): read-out: AUC0-inf (ng · h/mL) prodrug; for half-life: read-out: Half-life t1/2 (hour) prodrug (converted)
Experimental: The purpose of this study is to determine the pharmacokinetics of test compounds in plasma, following deep intramuscular administration to Beagle dogs (n=3, unless otherwise specified).
(§4) The dose formulation (concentration—400 mg base equivalents/ml in sesame oil+1% benzyl alcohol, unless otherwise specified) was administered via deep intramuscularly (unless otherwise specified). The injection vehicle was also dosed via deep intramuscular route (unless otherwise specified) on contralateral site of each animal at study initiation. The animals were sedated with Propofol at 6 mg/kg via IV administration. Following sedation hair was carefully removed from around the injection site and the area gently cleaned. Care will be taken to avoid irritating skin during shaving and cleaning the injection site. Then dogs will be dosed with deep IM administration. At least 2.5 cm depth from the surface into the central aspect of the quadriceps or biceps femoris muscle, by angling the needle toward the femur. If the needle hits the femur, simply draws back slightly and then inject. The dose volume will be determined by the animals' body weight collected on the morning of dosing day. For repeated administration, the injection sites may be rotated to minimize tissue injury.
Blood samples were collected from a peripheral vessel from restrained, non-sedated animals per sampling time point.
Approximately 0.8 mL blood will be collected at each time point.
(§5) Each collected blood sample was centrifuged for 4 minutes at 4° C. and 10000 rpm for plasma collection. Plasma was collected and transferred into a pre-labeled PP tube in dry ice at each time point and precipitated immediately using ACN at a ratio of 1:4 (plasma:ACN).
(§6) LC-MS/MS methods for the quantitative determination of test compound in biological matrix were developed. […] The sample analysis was performed concurrently with a set of calibration standards and two sets of QC samples using the LC-MS/MS method.
(§7) Plasma concentration versus time data was analyzed by non-compartmental approaches using the Phoenix WinNonlin 6.3 software program. Cmax, Tmax, T1/2, AUC(0-t), AUC(0-inf), MRT(0-t), MRT(0-inf) and graphs of plasma concentration versus time profile were prepared.

[6] = Rat pharmacokinetic studies, intramuscular administration; format: in vivo, male Sprague Dawley Rats; conditions: male, Sprague Dawley, rat, plasma, im, Sesame oil + 1% Benzyl Alcohol; for AUC(0-inf): read-out: AUC0-inf (ng · h/mL) prodrug; for half-life: read-out: Half-life t1/2 (hour) prodrug (converted)
Experimental: The purpose of this study is to determine the pharmacokinetics of test compounds in plasma, following intramuscular administration to male Sprague Dawley Rats (n=3, unless otherwise specified).
The dose formulation of 400 mg base equivalents/ml in sesame oil+1% benzyl alcohol (unless otherwise specified) was administered by intramuscular injection. The dose volume was determined by the animals' body weight determined on the morning of dosing day.
as §5, with “(plasma:ACN). Centrifuged again (10 minutes, 12000 rpm) and obtain the supernatant.” for “(plasma:ACN).”
as §6, §7

[7] = Liver S9 fraction stability, dog; format: in vitro ADME; conditions: dog liver S9 1.0 mg/ml, 2 μM, 37° C.
Experimental: (§8) Liver S9 fraction stability determination of the test compounds in dog, cynomolgus monkey and human is performed using HPLC-MS. Test compound (2 μM, 0.1% DMSO, 1% Methanol final concentration) was assessed for stability in a 50 μl phosphate buffer containing 1.0 mg/ml S9 protein from each of the three species and 5 mM D-saccharic acid-1, 4-lactone. Samples were incubated at 37° C. for 60 minutes and the % compound remaining was assessed.

[8] = Liver S9 fraction stability, monkey; format: in vitro ADME, cynomolgus monkey; conditions: monkey liver S9 1.0 mg/ml, 2 μM, 37° C.
Experimental: as §8

[9] = Liver S9 fraction stability, human; format: in vitro ADME; conditions: human liver S9 1.0 mg/ml, 2 μM, 37° C.
Experimental: as §8

[10] = Dog body weights and clinical observation (Tables 66-86); format: in vivo, Beagle dogs; conditions: dog D1002, 48 mg/kg
Experimental: Weight monitoring was done every week.
as §4

[11] = 25 °C, oil or lipid, Approximate Solubility in Excipient: Cottonseed oil, Heating Temp. 60 °C, Obs. Temp. 25 °C
[12] = 25 °C, oil or lipid, Approximate Solubility in Excipient: Sesame oil, Heating Temp. 60 °C, Obs. Temp. 25 °C
[13] = 40 °C, Heating Temp. 40 °C, Obs. Temp. 40 °C
[14] = 30 mg/kg, IM 30 mg/kg, Cottonseed + 1% Benzyl Alcohol
[15] = 48 mg/kg, IM 48 mg/kg, Cottonseed + 1% Benzyl Alcohol
[16] = IM 96 mg/kg, Cottonseed oil + 1% Benzyl Alcohol
[17] = 40 °C, oil or lipid, Approximate Solubility in Excipient: Cottonseed oil, Heating Temp. 60 °C, Obs. Temp. 40 °C
[18] = 40 °C, oil or lipid, Approximate Solubility in Excipient: Sesame oil, Heating Temp. 60 °C, Obs. Temp. 40 °C
[19] = 30 mg/kg, IM 30 mg/kg, Sesame oil + 1% Benzyl Alcohol
[20] = 48 mg/kg, IM 48 mg/kg, Sesame oil + 1% Benzyl Alcohol
[21] = 96 mg/kg, IM 96 mg/kg, Sesame oil + 1% Benzyl Alcohol

SMILES: C=C1CC[C@@]2(O)C3Cc4ccc(OCOC(=O)CCCCCCCCCCCCC)c5c4[C@@]2(CCN3CC2CC2)[C@H]1O5 [Compound 45, (((4aS,7aS,12bS)-3-(cyclopropylmethyl)-4a-hydroxy-7-methylene-2,3,4,4a,5,6,7,7a-octahydro-1H-4,12-methanobenzofuro[3,2-e]isoquinolin-9-yl)oxy)methyl tetradecanoate]
- solubility at 24 h [1, 11]: > 402 mg/mL
- solubility at 24 h [1, 12]: 267 to 288 mg/mL (≈ 460 to 497 mM)
- solubility thermodynamic [1, 13]: < 0.001 mg/mL
- IC50 [2]: 2 nM
- IC50 [3]: 68.4 nM
- IC50 [4]: 5.5 nM
- AUC(0-inf) [5, 14]: 0.1 µg·h/mL
- half-life [5, 14]: 151 h
- AUC(0-inf) [5, 15]: 0.267 µg·h/mL
- half-life [5, 15]: 171 h
- AUC0-inf (ng · h/mL) prodrug [5, 16]: None
- Half-life t1/2 (hour) prodrug [5, 16]: None

SMILES: C=C1CC[C@@]2(O)C3Cc4ccc(OC(=O)CCCCCCC/C=C/CCCCCCCC)c5c4[C@@]2(CCN3CC2CC2)[C@H]1O5 [Compound 15, (4aS,7aS,12bS)-3-(cyclopropylmethyl)-4a-hydroxy-7-methylene-2,3,4,4a,5,6,7,7a-octahydro-1H-4,12-methanobenzofuro[3,2-e]isoquinolin-9-yl (E)-octadec-9-enoate]
- solubility at 24 h [1, 11]: > 403 mg/mL
- solubility at 24 h [1, 12]: > 396 mg/mL
- solubility ([1]; 40 °C, oil or lipid, Approximate Solubility in Excipient: Cottonseed oil, Heating Temp. 40 °C, Obs. Temp. 40 °C): < 51 mg/mL
- solubility [1, 17]: > 401 mg/mL
- solubility ([1]; 40 °C, oil or lipid, Approximate Solubility in Excipient: Sesame oil, Heating Temp. 40 °C, Obs. Temp. 40 °C): < 52 mg/mL
- solubility [1, 18]: > 404 mg/mL
- solubility ([1]; 40 °C, organic solvent or mixture, Approximate Solubility in Excipient: Ethanol, Heating Temp. 40 °C, Obs. Temp. 40 °C): < 20 mg/mL
- solubility thermodynamic [1, 13]: < 0.0002 mg/mL
- AUC(0-inf) ([6]; 80 mg/kg): 0.679 µg·h/mL
- half-life ([6]; 80 mg/kg): 1550 h
- AUC(0-inf) ([6]; 123 mg/kg): 2.57 µg·h/mL
- half-life ([6]; 123 mg/kg): 884 h
- AUC(0-inf) ([6]; 165 mg/kg): 2.79 µg·h/mL
- half-life ([6]; 165 mg/kg): 500 h
- % remaining at 60 minutes, Dog [7]: 80.9%
- % remaining at 60 minutes, Monkey [8]: 76.7%
- AUC(0-inf) [5, 19]: 0.521 µg·h/mL
- half-life [5, 19]: 134 h
- AUC(0-inf) [5, 20]: 1.14 µg·h/mL
- half-life [5, 20]: 518 h
- AUC(0-inf) [5, 21]: 1.35 µg·h/mL
- half-life [5, 21]: 162 h
- % remaining at 60 minutes, Human [9]: 59.8%

SMILES: C=C1CC[C@@]2(O)C3Cc4ccc(OC(=O)CCCCCCCCCCCCCCC)c5c4[C@@]2(CCN3CC2CC2)[C@H]1O5 [Compound 56, (4aS,7aS,12bS)-3-(cyclopropylmethyl)-4a-hydroxy-7-methylene-2,3,4,4a,5,6,7,7a-octahydro-1H-4,12-methanobenzofuro[3,2-e]isoquinolin-9-yl palmitate]
- solubility at 24 h [1, 11]: < 50 mg/mL
- solubility at 24 h [1, 12]: < 50 mg/mL
- solubility [1, 17]: 25 to 50 mg/mL (≈ 43.3 to 86.5 mM)
- solubility [1, 18]: 25 to 50 mg/mL (≈ 43.3 to 86.5 mM)
- solubility ([1]; 40 °C, organic solvent or mixture, Approximate Solubility in Excipient: Ethanol, Heating Temp. 60 °C, Obs. Temp. 40 °C): < 40.4 mg/mL
- solubility thermodynamic ([1]; 40 °C, Heating Temp. 60 °C, Obs. Temp. 40 °C): 0.0679 mg/mL (≈ 0.118 mM)
- melting point: 48.95 °C

SMILES: C=C1CC[C@@]2(O)C3Cc4ccc(OCOC(=O)OCCCCCCCCCCC)c5c4[C@@]2(CCN3CC2CC2)[C@H]1O5 [Compound 5, (((4aS,7aS,12bS)-3-(cyclopropylmethyl)-4a-hydroxy-7-methylene-2,3,4,4a,5,6,7,7a-octahydro-1H-4,12-methanobenzofuro[3,2-e]isoquinolin-9-yl)oxy)methyl undecyl carbonate]
- solubility ([1]; 25 °C, oil or lipid, Solubility by volumetric flask method: Cottonseed oil, volumetric flask method, Heating Temp. 60 °C, Obs. Temp. 25 °C): > 402 mg/mL
- solubility ([1]; 25 °C, oil or lipid, Solubility by volumetric flask method: Sesame oil, volumetric flask method, Heating Temp. 60 °C, Obs. Temp. 25 °C): > 401 mg/mL
- solubility thermodynamic ([1]; 40 °C, section 'Solubility by volumetric flask method', Heating Temp. 40 °C, Obs. Temp. 40 °C): < 0.001 mg/mL
- BT ([10]; 456 hr): 3 cm * 3 cm/BT: 38.9 °C
- BT ([10]; 504 hr): 3 cm * 3 cm/BT: 38.7 °C
- BT ([10]; […]): 3 cm * 4 cm/BT: 39.4 °C
- AUC(0-inf) [5, 20]: 3.87 µg·h/mL
- half-life [5, 20]: 70.9 h
